# Experimental data taken from patent EP1311486B1, “USES OF THALIPORPHINE OR ITS DERIVATIVES IN TREATMENT OF CARDIAC DISEASES AND PREPARATION OF SAME” (Lotus Pharmaceutical Co., Ltd., priority 2000, dated 2002).
# Where “and” joins values, the source holds several entries; their conditions need not be identical. Identical values can stand only once. Marks after values point to notes of the source that are not given here.
# Columns and labels:
# [1] = DPPH radical scavenging, absorbance at 517 nm; assay type: biochemical; details: DPPH 100µM, 25°C, 30 minutes
# Description: After incubation of various concentrations of THP with 1,1-diphenyl-2-picrylhydrazyl (DPPH, 100µM) at room temperature (25°C) for 30 minutes, decrease in the absorbance for DPPH at 517 nm was measured to determine the dose-response curve of THP in scavenging DPPH radicals.
# In the 1,1-diphenyl-2-picrylhydrazyl (DPPH) assay system, the free radical scavenging activity of THP is expressed as IC0.200. The decrease in optical absorbance at 517 nm after addition of THP is monitored following the trapping of the unpaired electron of DPPH. Referring to FIG.4, THP scavenges DPPH in a concentration-dependent manner with IC0.200 of 12.4µmol/L.
# [2] = test system: in vivo anesthetized rat; experiment: Ischemia-induced arrhythmias in the anesthetized rat (30 minutes coronary occlusion)
# Description: (§1) Myocardial ischemia was performed by a temporary tightening of the silk ligature around the left main coronary artery. Reperfusion was achieved by releasing the tension applied to the ligature (operated groups). Sham operated animals underwent all surgical procedures, apart from the fact that the silk, passing around the left coronary artery, was not tied (sham groups). Animals were infused with a bolus of THP (3.5x10^-7, 3.5x10^-6, 3.5x10^-5 g/kg), L-NAME (N^∞-nitro-L-arginine methyl ester; 1x10^-3 g/kg) or vehicle (dimethyl sulfoxide/ NaCl 0.9%, 1:10^3; v/v) from a jugular vein 15 minutes before coronary occlusion. The coronary artery was occluded for 30 minutes or 5 minutes followed by 30 minutes reperfusion and with the animals then divided randomly in the following groups: (1) sham + vehicle; (2) sham + THP (3.5x10^-5g/kg); (3) operated + vehicle; (4) operated + THP (3.5x10^-7 g/kg); (5) operated + THP (3.5x10^-6 g/kg); (6) operated + THP (3.5x10^-5 g/kg); (7) operated + L-NAME (1x10^-3 g/kg) + THP (3.5x10^-5 g/kg). Before and during the ischemia or reperfusion period, heart rate (HR), blood pressure (BP) and ECG changes were recorded. Ventricular ectopic activity was evaluated according to the diagnostic criteria advocated in the Lambeth Convention. The incidence and duration of ventricular tachyarrhythmias, including ventricular tachycardia (VT) and ventricular fibrillation (VF), in surviving animals was determined. The Mann-Whitney rank-sum test was used to analyze the differences in the duration of VT and VF between vehicle and drug treated groups. The BP and HR changes between vehicle and drug treated rats in the arrhythmia study were analyzed by ANOVA (analysis of variance) followed by Bonferroni's test. The difference in the percentage incidence of VT, VF and mortality rate was analyzed with a Chi-square test. Table 2 Effect of THP on ischemia-induced arrhythmias in the in vivo anesthetized rat
# In ischemic condition, severe ventricular arrhythmias in the vehicle group begins after 6-7 minutes of coronary artery occlusion, peaks after 8-12 minutes, and normally subsides after approximately 15 minutes from initiation. The duration of VF is calculated to be 32.1±8.9 seconds, and the duration of VT is 36.8±8.8 seconds. […] Administration of THP at 3.5x10^-5 g/kg results in a decrease of the incidence of VT and VF to 10% and 0%, respectively (p<0.05). […] A particular important finding is the very effective reduction of mortality even at very low dose of THP 3.5x 10^-7 g/kg.
# [3] = test system: isolated rat hearts; experiment: Arrhythmia induced by ligation-reperfusion in isolated rat heart
# Description: The isolated rat hearts were ligated by a temporary tightening of the silk ligature around the left main coronary artery to induce myocardial ischemia. Reperfusion was achieved by releasing the tension applying to the ligature to induce arrhythmia. 10µM THP was then administered and the atrial and ventricular electrograms were recorded.
# Similarly, 10µM THP can be effective in inhibiting the cardiac arrhythmia induced in the isolated guinea pig heart subjected to global ischemia followed by reperfusion (Table 1). The structure of coronary arteries between rat and guinea pig are not alike, THP, however, can be effective in inhibiting the arrhythmia induced in the isolated heart subjected to ischemia-reperfusion in both animals.
# [4] = test system: delayed outward potassium current (IK); experiment: Inhibition of delayed outward potassium current; details: guinea pigs
# Description: Moreover, 3-10µM THP prolongs the action potential duration in the atria or ventricles of both rats and guinea pigs (data not shown).
# [5] = test system: in vivo anesthetized rat; experiment: Reperfusion-induced arrhythmias in the anesthetized rat (5 minutes ischemia, 30 minutes reperfusion)
# Description: as §1
# The severity of reperfusion induced-arrhythmias is critically dependent upon the duration of the preceding period of ischemia. Thus, the protocol of a 5 minutes period of ischemia followed by a 30 minutes period of reperfusion is selected for producing the highest incidence of rhythm disturbance. […] In contrast, animals pretreated with THP (3.5x10^-6 and 3.5x10^-5 g/kg), experienced a drastic reduction in the incidence of VF from 88% to 29% and 13% (p<0.05) and the duration of VF from 92.4±20.5 seconds to 9.2±8.3 and 1.2±1.2 seconds (p<0.05). The mortality rate also decreases from 75% to 0% by 3.5x10^-6 g/kg THP (p<0.05). However, L-NAME coadministration only partially antagonizes the antiarrhythmic activity and mortality prevention effect of thaliporphine (3.5x10^-5 g/kg).
compound,measurement,setting,value
"COc1cc2c(cc1OC)-c1c(O)c(OC)cc3c1C(C2)N(C)CC3 (single isomer, unassigned; (+)) [THP, (+)-Thaliporphine]","IC0.200, scavenging of DPPH",[1],12.4 µmol/L
same,Mortality (%),[2]; THP 3.5x10^-5 g/kg i.v.,0%
same,VF Duration,[2]; THP 3.5x10^-5 g/kg i.v.,0.0 ± 0.0 s
same,VF Incidence(%),[2]; THP 3.5x10^-5 g/kg i.v.,0%
same,VT Duration,[2]; THP 3.5x10^-5 g/kg i.v.,0.3 ± 0.3 s
same,VT Incidence(%),[2]; THP 3.5x10^-5 g/kg i.v.,10%
same,Mortality (%),[2]; THP 3.5x10^-6 g/kg i.v.,0%
same,VF Duration,[2]; THP 3.5x10^-6 g/kg i.v.,0.5 ± 0.5 s
same,VF Incidence(%),[2]; THP 3.5x10^-6 g/kg i.v.,10%
same,VT Duration,[2]; THP 3.5x10^-6 g/kg i.v.,5.7 ± 3.3 s
same,VT Incidence(%),[2]; THP 3.5x10^-6 g/kg i.v.,50* %
same,Mortality (%),[2]; THP 3.5x10^-7 g/kg i.v.,0%
same,VF Duration,[2]; THP 3.5x10^-7 g/kg i.v.,6.7 ± 4.9 s
same,VF Incidence(%),[2]; THP 3.5x10^-7 g/kg i.v.,20%
same,VT Duration,[2]; THP 3.5x10^-7 g/kg i.v.,16.1 ± 7.4 s
same,VT Incidence(%),[2]; THP 3.5x10^-7 g/kg i.v.,60%
same,effect on polymorphic ventricular tachyrhythmia induced by ischemia-reperfusion,"[3]; 10 µM, FIG. 5 (a)",conversion of polymorphic ventricular tachyrhythmia induced by ischemia-reperfusion to normal sinus rhythm
same,IC50,"[3]; 0.5 h, isolated rat heart, 30 minutes ligation followed by reperfusion, 3-30µM, read-out: IC50, reversing the cardiac arrhythmia",15.7 µM
same,delayed outward potassium current (IK),[4],markedly inhibit
same,Mortality (%),[5]; THP 3.5x10^-5 g/kg i.v.,0* %
same,VF Duration,[5]; THP 3.5x10^-5 g/kg i.v.,1.2 ± 1.2 s
same,VF Incidence(%),[5]; THP 3.5x10^-5 g/kg i.v.,13% and 14* %
same,VT Duration,[5]; THP 3.5x10^-5 g/kg i.v.,7.6 ± 3.2 s
same,VT Incidence(%),[5]; THP 3.5x10^-5 g/kg i.v.,71%
same,Mortality (%),[5]; THP 3.5x10^-6 g/kg i.v.,0%
same,VF Duration,[5]; THP 3.5x10^-6 g/kg i.v.,9.2 ± 8.3 s
same,VF Incidence(%),[5]; THP 3.5x10^-6 g/kg i.v.,29%
same,VT Duration,[5]; THP 3.5x10^-6 g/kg i.v.,14.6 ± 9.1 s
same,VT Incidence(%),[5]; THP 3.5x10^-6 g/kg i.v.,57%
same,Mortality (%),[5]; THP 3.5x10^-7 g/kg i.v.,43%
same,VF Duration,[5]; THP 3.5x10^-7 g/kg i.v.,75.5 ± 15.6 s
same,VF Incidence(%),[5]; THP 3.5x10^-7 g/kg i.v.,86%
same,VT Duration,[5]; THP 3.5x10^-7 g/kg i.v.,28.6 ± 10.4 s
same,VT Incidence(%),[5]; THP 3.5x10^-7 g/kg i.v.,86%
